A word on the IC50: it is the concentration that gives 50% inhibition.

Like-named read-outs stand apart in the source and are kept apart here.

These results are taken from US10329270B2, “Heteroaryl compounds as BTK inhibitors and uses thereof” (Merck Patent GmbH, priority 2013, dated 2019).

The assay deals with T1, full-length human BTK (Homo sapiens, UniProt Q06187).
T1 construct: 2.5× stocks of full-length human BTK (08-080); purchased CarnaBio USA, Inc., Natick, Mass; 08-080
Kind of assay: Assay A: BTK IC50 Enzyme Assay (microfluidic off-chip mobility shift kinase assay). It counts as biochemical. In a few lines: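 Off-chip microfluidic mobility shift assay with full-length human BTK; phosphorylated and unphosphorylated peptide substrate were separated by charge/mass on a LabChip 3000.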

The mark [1] stands for this setting: full-length human BTK, kinKDR peptide substrate, incubated 90 min at 27 C, read-out: Assay A (Time Dependent BTK Enzyme Assay IC50).

T1 sequence (Q06187 whole entry): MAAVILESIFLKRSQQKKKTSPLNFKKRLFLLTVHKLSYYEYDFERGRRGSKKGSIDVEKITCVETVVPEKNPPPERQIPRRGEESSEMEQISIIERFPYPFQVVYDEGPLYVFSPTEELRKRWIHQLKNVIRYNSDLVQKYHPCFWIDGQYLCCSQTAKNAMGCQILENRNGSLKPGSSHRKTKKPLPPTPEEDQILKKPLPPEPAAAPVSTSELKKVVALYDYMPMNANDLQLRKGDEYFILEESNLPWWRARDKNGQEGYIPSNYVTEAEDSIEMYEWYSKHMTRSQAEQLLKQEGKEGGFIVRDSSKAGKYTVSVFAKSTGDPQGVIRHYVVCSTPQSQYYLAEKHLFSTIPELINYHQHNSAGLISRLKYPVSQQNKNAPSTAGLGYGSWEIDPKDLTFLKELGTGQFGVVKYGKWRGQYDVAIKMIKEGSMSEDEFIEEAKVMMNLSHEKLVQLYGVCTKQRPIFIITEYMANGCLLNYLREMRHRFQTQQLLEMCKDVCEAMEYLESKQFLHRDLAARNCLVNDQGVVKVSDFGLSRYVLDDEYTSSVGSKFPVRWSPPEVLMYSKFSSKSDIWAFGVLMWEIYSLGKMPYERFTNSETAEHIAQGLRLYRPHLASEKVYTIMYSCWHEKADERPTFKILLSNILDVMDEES

Consider `C=CC(=O)N[C@H]1CCN(c2nc(Nc3ccc(N4CC(C)OC(C)C4)c(F)c3)c(C(N)=O)cc2F)C1` (stereo partly drawn) [Compound 181, 6-((S)-3-Acryloylamino-pyrrolidin-1-yl)-2-[4-(2,6-dimethyl-morpholin-4-yl)-3-fluoro-phenylamino]-5-fluoro-nicotinamide], for which the IC50 under setting [1] is less than 0.1 µM. Same read-out and setting: the same measure for `C=CC(=O)N1CCC2(CC(Nc3ncc(C(N)=O)c(Oc4ccc(Oc5ccccc5)cc4)n3)C2)C1` (stereo not shown) [Compound 182, 2-((6-acryloyl-6-azaspiro[3.4]octan-2-yl)amino)-4-(4-phenoxyphenoxy)pyrimidine-5-carboxamide]: 1 to 5 µM. Same read-out and setting: under `C=CC(=O)N1CC2(CC(Nc3ncc(C(N)=O)c(Oc4ccc(Oc5ccccc5)cc4)n3)C2)C1` [Compound 183, 2-((2-acryloyl-2-azaspiro[3.3]heptan-6-yl)amino)-4-(4-phenoxyphenoxy)pyrimidine-5-carboxamide] stands 0.1 to 1 µM. On to `C=CC(=O)N1CCC(c2cc(Oc3ccc(NC(=O)c4ccccc4)cc3)c(C(N)=O)cn2)C1` (stereo not shown) [Compound 184, 6-(1-Acryloylpyrrolidin-3-yl)-4-(4-benzamidophenoxy)nicotinamide], for which, under setting [1], the 50% inhibitory concentration (IC50) is 1 to 5 µM. Regarding `C=CC(=O)N1CCC(c2ccc(C(N)=O)c(Oc3ccc(Oc4cccc(C#N)c4)cc3)n2)C1` (stereo not shown) [Compound 185, 6-(1-Acryloylpyrrolidin-3-yl)-2-(4-(3-cyanophenoxy)phenoxy)nicotinamide], the IC50 under setting [1] was less than 0.1 µM. Same read-out and setting: under `C=CC(=O)N[C@H]1CCN(c2nc(Nc3ccc(N4CCC(F)(F)CC4)cc3)c(F)cc2C(N)=O)C1` [Compound 186, 2-((S)-3-Acryloylamino-pyrrolidin-1-yl)-6-[4-(4,4-difluoro-piperidin-1-yl)-phenylamino]-5-fluoro-nicotinamide formic acid] stands 0.1 to 1 µM; under `C=CC(=O)N1CC[C@@H](N(C)c2ccc(C(N)=O)c(Oc3ccc(Oc4ccccc4)cc3)n2)C1` [Compound 187, 6-[((R)-1-Acryloyl-pyrrolidin-3-yl)-methyl-amino]-2-(4-phenoxy-phenoxy)-nicotinamide], 0.1 to 1 µM; under `N#C/C(=C\C1CC1)C(=O)N1C[C@@H]2C[C@H]1CN2c1ccc(C(N)=O)c(Oc2ccc(Oc3ccccc3)cc2)n1` [Compound 190, 6-((1S,4S)-5-((E)-2-cyano-3-cyclopropylacryloyl)-2,5-diazabicyclo[2.2.1]heptan-2-yl)-2-(4-phenoxyphenoxy)nicotinamide], 1 to 5 µM. Same read-out and setting: the same measure for `C=CC(=O)N[C@H]1CCN(c2ncc(C(N)=O)c(Oc3ccc(Oc4ccccc4)cc3)n2)C1` [Compound 192, (S)-2-(3-acrylamidopyrrolidin-1-yl)-4-(4-phenoxyphenoxy)pyrimidine-5-carboxamide]: 0.1 to 1 µM; for `C=CC(=O)N1C2CC1CN(c1ncc(C(N)=O)c(Oc3ccc(Oc4ccccc4)cc3)n1)C2` [Compound 193, 2-(6-acryloyl-3,6-diazabicyclo[3.1.1]heptan-3-yl)-4-(4-phenoxyphenoxy)pyrimidine-5-carboxamide]: 0.1 to 1 µM. For the molecule `C=CC(=O)N1CCC(F)(CNc2ncc(C(N)=O)c(Oc3ccc(Oc4ccccc4)cc3)n2)CC1` [Compound 194, 2-(((1-acryloyl-4-fluoropiperidin-4-yl)methyl)amino)-4-(4-phenoxyphenoxy)pyrimidine-5-carboxamide], the IC50 is 0.1 to 1 µM.

As for `C=CC(=O)NC1CC2(C1)CC(Nc1ncc(C(N)=O)c(Oc3ccc(Oc4ccccc4)cc3)n1)C2` (stereo not shown) [Compound 195, 2-((6-acrylamidospiro[3.3]heptan-2-yl)amino)-4-(4-phenoxyphenoxy)pyrimidine-5-carboxamide], the IC50 under setting [1] lay in the range of 1 to 5 µM. Consider `C=CC(=O)NC1CCN(c2cnc(Oc3ccc(Oc4ccccc4)cc3)c(C(N)=O)c2)C1` (stereo not shown) [Compound 196, 5-(3-Acryloylamino-pyrrolidin-1-yl)-2-(4-phenoxy-phenoxy)-nicotinamide], for which the IC50 under setting [1] fell in the range of 0.1 to 1 µM. Same read-out and setting: the same measure for `C=CC(=O)NC1CCN(c2cnc(Oc3ccc(Oc4ccccc4)cc3)c(C(N)=O)c2)CC1` [Compound 197]: 0.1 to 1 µM. Regarding `C=CC(=O)NC1CCCN(c2cnc(Oc3ccc(Oc4ccccc4)cc3)c(C(N)=O)c2)C1` (stereo not shown) [Compound 198], the IC50 under setting [1] lay within 0.1 to 1 µM. On the same count and under the same terms, under `C/C=C/C(=O)NC1CCN(c2cnc(Oc3ccc(Oc4ccccc4)cc3)c(C(N)=O)c2)C1` (stereo not shown) [Compound 199, 5-[3-((E)-But-2-enoylamino)-pyrrolidin-1-yl]-2-(4-phenoxy-phenoxy)-nicotinamide] stands greater than 5 µM; under `C/C=C/C(=O)NC1CCN(c2cnc(Oc3ccc(Oc4ccccc4)cc3)c(C(N)=O)c2)CC1` [Compound 200, 4-((E)-But-2-enoylamino)-6′-(4-phenoxy-phenoxy)-3,4,5,6-tetrahydro-2H-[1,3′]bipyridinyl-5′-carboxylic acid amide], greater than 5 µM. For the molecule `C=CC(=O)N1CCC(Nc2cnc(Oc3ccc(Oc4ccccc4)cc3)c(C(N)=O)c2)C1` (stereo not shown) [Compound 201, 5-(1-Acryloyl-pyrrolidin-3-ylamino)-2-(4-phenoxy-phenoxy)-nicotinamide], the IC50 under setting [1] is less than 0.1 µM.

With `C/C=C/C(=O)N1CCC(Nc2cnc(Oc3ccc(Oc4ccccc4)cc3)c(C(N)=O)c2)C1` (stereo not shown) [Compound 202, 5-[1-((E)-But-2-enoyl)-pyrrolidin-3-ylamino]-2-(4-phenoxy-phenoxy)-nicotinamide], under setting [1], the IC50 lay in the range of 1 to 5 µM. Same read-out and setting: the same measure for `C=CC(=O)N1C[C@@H]2CCN(c3ncc(C(N)=O)c(Oc4ccc(Oc5ccccc5)cc4)n3)[C@@H]2C1` [Compound 203, 2-((3aS,6aS)-5-acryloylhexahydropyrrolo[3,4-b]pyrrol-1(2H)-yl)-4-(4-phenoxyphenoxy)pyrimidine-5-carboxamide]: 0.1 to 1 µM; for `C=CC(=O)NC1CCCN(c2ncc(C(N)=O)c(Oc3ccc(Oc4ccccc4)cc3)n2)C1` (stereo not shown) [Compound 204, 2-(3-acrylamidopiperidin-1-yl)-4-(4-phenoxyphenoxy)pyrimidine-5-carboxamide]: 1 to 5 µM; for `C=CC(=O)N[C@@H]1CCCN(c2ccc(C(N)=O)c(Nc3ccc(C(=O)N4CCOCC4)cc3)n2)C1` [Compound 205, (R)-3-Acryloylamino-6′-[4-(morpholine-4-carbonyl)-phenylamino]-3,4,5,6-tetrahydro-2H-[1,2′]bipyridinyl-5′-carboxylic acid amide]: less than 0.1 µM. Same read-out and setting: under `C=CC(=O)N1CCCN(c2ncc(C(N)=O)c(Oc3ccc(Oc4ccccc4)cc3)n2)CC1` [Compound 206, 2-(4-acryloyl-1,4-diazepan-1-yl)-4-(4-phenoxyphenoxy)pyrimidine-5-carboxamide] stands 0.1 to 1 µM; under `C=CC(=O)N1C[C@@H]2CCC[C@H]1CN(c1ncc(C(N)=O)c(Oc3ccc(Oc4ccccc4)cc3)n1)C2` [Compound 208, 2-((1 S,5R)-9-acryloyl-3,9-diazabicyclo[3.3.2]decan-3-yl)-4-(4-phenoxyphenoxy)pyrimidine-5-carboxamide], 0.1 to 1 µM. Same read-out and setting: the same measure for `C=CC(=O)N1CCC(CNc2ncc(C(N)=O)c(Oc3ccc(Oc4ccccc4)cc3)n2)CC1` [Compound 209, 2-(((1-acryloylpiperidin-4-yl)methyl)amino)-4-(4-phenoxyphenoxy)pyrimidine-5-carboxamide]: 0.1 to 1 µM.

Consider `N#C/C(=C\C1CC1)C(=O)N1C[C@@H]2C[C@H]1CN2c1ncc(C(N)=O)c(Oc2ccc(Oc3ccccc3)cc2)n1` [Compound 210, 2-((1S,4S)-5-((E)-2-cyano-3-cyclopropylacryloyl)-2,5-diazabicyclo[2.2.1]heptan-2-yl)-4-(4-phenoxyphenoxy)pyrimidine-5-carboxamide], for which the IC50 under setting [1] was in the range of 1 to 5 µM. `C/C=C(\C#N)C(=O)N1C[C@@H]2C[C@H]1CN2c1ncc(C(N)=O)c(Oc2ccc(Oc3ccccc3)cc2)n1` [Compound 211, 2-((1S,4S)-5-((E)-2-cyanobut-2-enoyl)-2,5-diazabicyclo[2.2.1]heptan-2-yl)-4-(4-phenoxyphenoxy)pyrimidine-5-carboxamide]: the half-inhibitory concentration (IC50) under setting [1] lay within 1 to 5 µM. Same read-out and setting: the same measure for `C=CC(=O)NC1CCN(c2cnc(Oc3ccc(Oc4cccc(F)c4)cc3)c(C(N)=O)c2)CC1` [Compound 212, 4-Acryloylamino-6′-[4-(3-fluoro-phenoxy)-phenoxy]-3,4,5,6-tetrahydro-2H-[1,3′]bipyridinyl-5′-carboxylic acid amide]: 0.1 to 1 µM; for `C/C=C/C(=O)NC1CCCN(c2cnc(Oc3ccc(Oc4ccccc4)cc3)c(C(N)=O)c2)C1` (stereo not shown) [Compound 213, 3-((E)-But-2-enoylamino)-6′-(4-phenoxy-phenoxy)-3,4,5,6-tetrahydro-2H-[1,3′]bipyridinyl-5′-carboxylic acid amide]: greater than 5 µM; for `C/C=C/C(=O)NC1CCN(c2cnc(Oc3ccc(Oc4cccc(F)c4)cc3)c(C(N)=O)c2)CC1` [Compound 214, 4-((E)-But-2-enoylamino)-6′-[4-(3-fluoro-phenoxy)-phenoxy]-3,4,5,6-tetrahydro-2H-[1,3′]bipyridinyl-5′-carboxylic acid amide]: greater than 5 µM.

As for `C/C=C/C(=O)N1CCCC(Nc2cnc(Oc3ccc(Oc4ccccc4)cc3)c(C(N)=O)c2)C1` (stereo not shown) [Compound 215, 5-[1-((E)-But-2-enoyl)-piperidin-3-ylamino]-2-(4-phenoxy-phenoxy)-nicotinamide], under setting [1], the IC50 is greater than 5 µM. Take `C=CC(=O)N1CC2CN(c3cnc(Oc4ccc(Oc5ccccc5)cc4)c(C(N)=O)c3)CC2C1` (stereo not shown) [Compound 216, 5-(5-Acryloyl-hexahydro-pyrrolo[3,4-c]pyrrol-2-yl)-2-(4-phenoxy-phenoxy)-nicotinamide]: the IC50 under setting [1] is 0.1 to 1 µM.

Turning to `C/C=C/C(=O)N1CC2CN(c3cnc(Oc4ccc(Oc5ccccc5)cc4)c(C(N)=O)c3)CC2C1` (stereo not shown) [Compound 217, 5-[5-((E)-But-2-enoyl)-hexahydro-pyrrolo[3,4-c]pyrrol-2-yl]-2-(4-phenoxy-phenoxy)-nicotinamide], the IC50 under setting [1] was greater than 5 µM. Turning to `C=CC(=O)N1CCN(c2ncc(C(N)=O)c(Oc3ccc(Oc4ccccc4)cc3)n2)C(C)C1` (stereo not shown) [Compound 218, 2-(4-acryloyl-2-methylpiperazin-1-yl)-4-(4-phenoxyphenoxy)pyrimidine-5-carboxamide], the half-maximal inhibitory concentration (IC50) under setting [1] was less than 0.1 µM.
